Results on two sequences are retold here after patent US11466273B2, “Monocarboxylate transporter 4 (MCT4) antisense oligonucleotide (ASO) inhibitors for use as therapeutics in the treatment of cancer” (THE UNIVERSITY OF BRITISH COLUMBIA, priority 2015, dated 2022).

pIC50: −log10 of the molar value.

Data set [1] relates to PC-3 cells. Briefly: Lactate and glucose determination in PC-3 cells. As to conditions: after 48 hours of transfection. Type of data set: cell-based, human. The protocol:
PC-3 cells transfected with ASOs for 48 hours were assessed for lactate and glucose levels. Cells were incubated with fresh media for 4 hours. A sample of the media was then taken and deproteinated with 10K Spin Columns™ (BioVision™, Milpitas, Calif.) prior to determination of lactate concentration using Lactate Assay Kit (BioVision) and glucose concentration using Glucose Assay Kit™ (BioVision™). Intracellular lactate levels were determined by lysing ASO-transfected cells in MQH2O. Final concentrations were determined by normalizing to the total number of live cells.

In data set [2] the test system is TRAMPC2 prostate cancer cells. Briefly: TRAMPC2 cell proliferation after ASO transfection. Type of data set: cell-based, mouse. Particulars: up to highest tested concentration of 200 nM. The protocol:
(§1) Cell viability was assessed by trypan blue exclusion.
(§2) Cells were transfected in 6-well plates with ASOs at 100 nM for 48 hours (unless otherwise indicated) using Oligofectamine™ (Invitrogen™, Carlsbad, Calif.) or with MCT4-targeting siRNAs and controls (Dharmacon™, Chicago, Ill.) at 50 nM for 48 hours using Lipofectamine™ 2000 (Invitrogen™), following the manufacturer's instructions.

Data set [3] deals with MCT4. Briefly: MCT4 expression in DU145 cells after ASO transfection. Type of data set: cell-based, human. As to conditions: compared with PC-3 and C4-2. The protocol:
as §2
(§3) Total RNA was isolated using the RNeasy Mini Kit™ (Qiagen Inc.™, Hilden, Germany) and cDNA synthesized using the QuantiTect Reverse Transcription Kit™ (Qiagen™). Primers were designed using Primer-BLAST™. qRT-PCR reactions using KAPA SYBR Fast Universal™ (Kapa Biosystems™, Woburn, Mass.) were performed in triplicate in a ViiA 7 Real-Time PCR™ system (Applied Biosystems™, Foster City, Calif.). […]
(§4) Cells were harvested and lysed in RIPA buffer (50 mM Tris-Cl pH 7.4, 150 mM NaCl, 1% Igepal, 0.5% Na-deoxycholate, 0.1% SDS) supplemented with a complete protease inhibitor cocktail (Roche, Nutley, N.J.). The protein concentration of the lysate was determined by Pierce BCA Protein Assay™ (Thermo Scientific™, Waltham, Mass.). […] Following overnight incubation at 4° C., the primary antibody was probed with the corresponding secondary antibody and detected using the Odyssey Infrared Imaging System™ (Li-cor Biosciences™) and Image Studio Version 3.1™ (Li-cor Biosciences™). […]

Data set [4] deals with PC3 cells. The experiment in a line: Combination screening, total live PC3 cell numbers. As to conditions: approximate IC50 used for combination screening, 48 hours; read-out: IC50 Concentration. Type of data set: cell-based, human. From the text: Human PC-3 and DU145 CRPC cells, human LNCaP prostate cancer cells, and mouse TRAMPC2 prostate cancer cells were purchased from the American Type Culture Collection (ATCC); C4-2 CRPC cells were from the Vancouver Prostate Centre, Vancouver, BC, Canada. Human monolayer cultures were maintained in RPMI-1640 (GE Healthcare Hyclone™, Logan, Utah) supplemented with 10% fetal bovine serum (FBS) (GE Healthcare Hyclone™, Logan, Utah) while TRAMPC2 cells were maintained in DMEM (GE Healthcare Hyclone™, Logan, Utah) supplemented with 5% FBS. For cell counting, cells were trypsinized to form a single cell suspension and counted using a TC20 Automated Cell Counter (Bio-Rad, Hercules, Calif.). Cell viability was assessed by trypan blue exclusion.
Various combination strategies were screened at the approximate IC50 concentrations to determine whether synergistic effects may be found by combining current cancer therapeutics (see TABLE D) with MCT4 ASO SEQ ID NO:5. In FIGS. 10 A-C, the total live PC3 cell numbers were assessed 48 hours after treatment with Metformin, Doxycycline and docetaxel both alone and in combination with MCT4 ASO SEQ ID NO:5.

For data set [5], the system named is MCT4 mRNA. Briefly: MCT4 expression (mRNA, protein) in PC-3 cells after ASO transfection. Particulars: for MCT4 protein levels, time course: 96 hours; for inhibition of MCT4 expression, screening of ten MCT4 ASOs: qPCR and Western blot, 48 hours; for pIC50: transfection of 5 nM to 200 nM, read-out: IC50 reduction of MCT4 mRNA levels. In kind it is cell-based, human. The protocol: as §2
(§5) Total RNA was isolated using the RNeasy Mini Kit™ (Qiagen Inc.™, Hilden, Germany) and cDNA synthesized using the QuantiTect Reverse Transcription Kit™ (Qiagen™). Primers were designed using Primer-BLAST™. qRT-PCR reactions using KAPA SYBR Fast Universal™ (Kapa Biosystems™, Woburn, Mass.) were performed in triplicate in a ViiA 7 Real-Time PCR™ system (Applied Biosystems™, Foster City, Calif.). Target genes were normalized to a geometric average of 3 internal reference genes (Vandesompele et al., 2002).
Cells were harvested and lysed in RIPA buffer (50 mM Tris-Cl pH 7.4, 150 mM NaCl, 1% Igepal, 0.5% Na-deoxycholate, 0.1% SDS) supplemented with a complete protease inhibitor cocktail (Roche, Nutley, N.J.). The protein concentration of the lysate was determined by Pierce BCA Protein Assay™ (Thermo Scientific™, Waltham, Mass.). The lysate was run on 8% SDS polyacrylamide gel (20 ug of protein per lane) and proteins were transferred onto PVDF membrane (Millipore™, Billerica, Mass.). The blot was blocked with the Odyssey™ blocking buffer (Li-cor Biosciences™) and probed with anti-MCT4 antibody. Vinculin was used as a loading control. Following overnight incubation at 4° C., the primary antibody was probed with the corresponding secondary antibody and detected using the Odyssey Infrared Imaging System™ (Li-cor Biosciences™) and Image Studio Version 3.1™ (Li-cor Biosciences™). Densitometry analysis was done using ImageJ (U.S. National Institutes of Health, Bethesda, Md.).
A general note: Quantitative PCR measures a nucleic acid by following its amplification.

For data set [6], the system named is PC-3 cells. Briefly: PC-3 cell proliferation after ASO/siRNA transfection. Type of data set: cell-based, human. As to conditions: for inhibition of PC-3 cell proliferation, screening of ten MCT4 ASOs: 100 nM, 48 hours; for inhibition of cell proliferation, time course: 96 hours post-transfection; for pIC50: transfection of 5 nM to 200 nM, read-out: IC50 inhibition of PC-3 cell proliferation. On the procedure:
as §1, §2

Data set [7] deals with mouse MCT4. Briefly: Mouse MCT4 expression in TRAMPC2 cells after ASO transfection. Type of data set: cell-based. Particulars: up to 200 nM. The protocol: as §2, §3, §4
Data set [8] deals with C4-2 CRPC cells. The experiment in a line: C4-2 CRPC cell proliferation after ASO transfection. As to conditions: read-out: IC50 inhibition of C4-2 cell proliferation. Type of data set: cell-based, human. The protocol: as §1, §2
The subject of data set [9] is DU145 prostate cancer cells. Briefly: DU145 cell proliferation after ASO transfection. Type of data set: cell-based, human. As to conditions: compared with PC-3 and C4-2. The protocol: as §1, §2
In data set [10] the test system is subcutaneous PC-3 tumours. Briefly: Treatment of PC-3 tumour-bearing nude mice with MCT4 ASO. Type of data set: in vivo. As to conditions: for host toxicity (animal weights and behaviour) / growth of PC-3 tumours: 10 mg/kg intraperitoneal; for host toxicity (animal weights and behaviour): 15 days; for growth of PC-3 tumours: daily for 5 days, 2 days off, total 15 days; for MCT4 protein expression in tumour / cell apoptosis, cleaved-caspase 3 staining / cell proliferation, Ki-67 staining: tumour tissue IHC. The protocol:
PC-3 cells ([…] cells in 1:1 HBSS:Matrigel) were injected subcutaneously into both flanks of 24 male athymic nude mice (Simonsen Laboratories™, Gilroy, Calif.). Once the mean tumour volume had reached approximately 100 mm3, mice were randomized into four groups and treated with intraperitoneal injections of MCT4 ASO #1 (SEQ ID NO: 1), #14 (SEQ ID NO: 5), control ASO, or vehicle (PBS) at 10 mg/kg daily for 5 days followed by 2 days off treatment for a total of 15 days. The health of the mice was monitored throughout the study by measuring body weights and checking for abnormal behaviour such as lethargy, lack of hydration, and additional signs of weakness. Tumour size was measured twice weekly and tumour volume calculated using the formula: Volume=Length×width×depth×0.5236 (mm3). Mice were sacrificed 1 hour after the final dose for tissue harvesting.
Tumour tissue was formalin-fixed and paraffin-embedded for immunohistochemical analysis. Tissues were sectioned, probed, and stained with DAB (Sigma™) as previously described (Wang et al., 2005). […] For MCT4, images of five random fields at 200× magnification were taken per tumour and staining intensity was assessed by percentage scoring, using the formula: Intensity=(% area score 3)×3+(% area score 2)×2+(% area score 1)×1. The extent of immune cell aggregation was quantified following CD31 staining by imaging the five most prominent regions of aggregates per tumour at 200× magnification and determining the percent area of the field they occupied. The proportions of immune cells were evaluated as the area of positive staining normalized to the area occupied by immune cell aggregates in the same five prominent regions.

Data set [11] deals with MCT4. The experiment in a line: MCT4 expression in C4-2 cells after ASO transfection. As to conditions: read-out: IC50 reduction of MCT4 expression. Type of data set: cell-based, human. The protocol: as §2, §3, §4
Data set [12] deals with PC-3 cells. Briefly: qPCR of glycolysis and lactic acid conversion genes in PC-3 cells. Type of data set: cell-based, human. On the procedure: as §5

With “AGATGCAGAAGACCACGAGG (chemistry not given here; listed as Homo sapiens) [SEQ ID No. 5]”, in [1], the glucose consumption entry is given as “extensive decrease”, the intracellular lactate result is “accumulation” and the lactic acid secretion entry is reported as “marked inhibition”. The “reduction in TRAMPC2 cell proliferation” value in data set [2] was “did not lead to a significant reduction”. Further, the “inhibitory effect on MCT4 expression in DU145 cells” value in [3] was “almost identical IC50 values”. In data set [4], the pIC50 was 7.30. In data set [5], the “MCT4 protein levels, time course” value was “remained low”; the “inhibition of MCT4 expression, screening of ten MCT4 ASOs” value is “greatest potency”; the pIC50 was 7.49. In data set [6], the “inhibition of PC-3 cell proliferation, screening of ten MCT4 ASOs” value is “greatest potency”; the “inhibition of cell proliferation, time course” value is “maintained the inhibition of cell proliferation”; the pIC50 was 7.59. Also, the “reduction in mouse MCT4 expression” value in data set [7] is “did not lead to a significant reduction”. Further, the pIC50 in data set [8] was 7.57. Also, in [9], the “inhibitory effect on DU145 cell proliferation” value is listed as “almost identical IC50 values”. In addition, in [10], the “host toxicity (animal weights and behaviour)” value is recorded as “without inducing major host toxicity”; the “growth of PC-3 tumours” value was “markedly inhibited”; the “MCT4 protein expression in tumour” value is on record as “decrease in MCT4 protein expression”; the “cell apoptosis, cleaved-caspase 3 staining” value is “increase in cell apoptosis”. Also, the “cell proliferation, Ki-67 staining” value in data set [10] was “decrease in cell proliferation”. In addition, in data set [11], the pIC50 is 7.59. For the same sequence, in data set [12], the “expression of glycolysis genes GAPDH, PGK1, PGAM1 and ENO1” value was “down regulation”; the “expression of lactate dehydrogenase A (LDHA)” value is recorded as “depressed”; the “expression of pyruvate dehydrogenase kinase-1 (PDK1)” value was “decreased expression”.
Consider “TCCCATGGCCAGGAGGGTTG (chemistry not given here; listed as Homo sapiens) [SEQ ID No. 1]”, for which, in [1], the glucose consumption entry is listed as “extensive decrease”, the intracellular lactate entry was “accumulation” and the lactic acid secretion result was “marked inhibition”. Moreover, in [2], the “reduction in TRAMPC2 cell proliferation” value is on record as “did not lead to a significant reduction”. The “inhibitory effect on MCT4 expression in DU145 cells” value in [3] was “almost identical IC50 values”. For the same sequence, in data set [5], the “MCT4 protein levels, time course” value is on record as “remained low”; the “inhibition of MCT4 expression, screening of ten MCT4 ASOs” value is reported as “greatest potency”; the pIC50 was 7.30. Also, in data set [6], the “inhibition of PC-3 cell proliferation, screening of ten MCT4 ASOs” value is given as “greatest potency”; the “inhibition of cell proliferation, time course” value is “maintained the inhibition of cell proliferation”; the pIC50 is 7.30. Also, in data set [7], the “reduction in mouse MCT4 expression” value is “did not lead to a significant reduction”. Further, the pIC50 in data set [8] was 7.40. Also, the “inhibitory effect on DU145 cell proliferation” value in data set [9] was “almost identical IC50 values”. In [10], the “host toxicity (animal weights and behaviour)” value was “without inducing major host toxicity”; the “growth of PC-3 tumours” value is “markedly inhibited”; the “MCT4 protein expression in tumour” value is “decrease in MCT4 protein expression”; the “cell apoptosis, cleaved-caspase 3 staining” value was “increase in cell apoptosis”. Further, the “cell proliferation, Ki-67 staining” value in [10] is given as “decrease in cell proliferation”. Besides, the pIC50 in data set [11] was 7.30. Moreover, in [12], the “expression of glycolysis genes GAPDH, PGK1, PGAM1 and ENO1” value is recorded as “down regulation”; the “expression of lactate dehydrogenase A (LDHA)” value is “depressed”; the “expression of pyruvate dehydrogenase kinase-1 (PDK1)” value was “decreased expression”.
